According to patent EP1220857B1, “GONADOTROPIN RELEASING HORMONE RECEPTOR ANTAGONISTS AND THEIR RELATED METHODS OF USE” (NEUROCRINE BIOSCIENCES, INC., priority 1999, dated 2001):

Biological target: T1, GnRH receptor (Homo sapiens, UniProt P30968)
T1 construct: expressed in transfected cells
T1 sequence (P30968 1-328): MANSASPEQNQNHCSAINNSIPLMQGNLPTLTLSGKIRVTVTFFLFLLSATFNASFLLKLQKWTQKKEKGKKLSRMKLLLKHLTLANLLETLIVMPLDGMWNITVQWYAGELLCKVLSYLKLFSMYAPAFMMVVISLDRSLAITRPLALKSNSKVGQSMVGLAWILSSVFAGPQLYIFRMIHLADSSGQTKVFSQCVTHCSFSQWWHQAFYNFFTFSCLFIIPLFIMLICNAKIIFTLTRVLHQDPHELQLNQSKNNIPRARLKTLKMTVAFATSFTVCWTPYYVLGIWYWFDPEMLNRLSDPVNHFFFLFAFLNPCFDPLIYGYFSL
Experiment: GnRH receptor membrane binding assay
Settings: displacement of [125I]-labeled GnRH peptide from membranes of cells transfected with GnRH receptor expression vectors; Ki by Cheng-Prusoff
Protocol: Activity of GnRH receptor antagonists are typically calculated from the IC50 as the concentration of a compound necessary to displace 50% of the radiolabeled ligand from the GnRH receptor, and is reported as a "Ki" value calculated by the following equation: Ki =(IC50)/(1 + L / KD) [formula] where L = radioligand and KD = affinity of radioligand for receptor (Cheng and Prusoff, Biochem. Pharmacol. 22:3099, 1973). GnRH receptor antagonists of this invention have a Ki of 100 µM or less. In a preferred embodiment of this invention, the GnRH receptor antagonists have a Ki of less than 10 µM, and more preferably less than 1µM. More preferred compounds include: 1-1, 1-2-5, 12, 13-15, 19, 21, 27, 31, 32, 34, 37, 55, 58, 64, 73, 2B, 2D, 3A, 3B, 3D, 4A, 4B, 4C, 4D, 4G, 4H, 5A and 5B (see Examples below).
The GnRH analog is labeled by the chloramine-T method. To 10 µg of peptide in 20 µl of 0.5M sodium phosphate buffer, pH 7.6, is added 1 mCi of Na125I, followed by 22.5 µg chloramine-T and the mixture vortexed for 20 sec. The reaction is stopped by the addition of 60 µg sodium metabisulfite and the free iodine is removed by passing the iodinated mixture through a C-8 Sep-Pak cartridge (Millipore Corp., Milford, MA). The peptide is eluted with a small volume of 80% acetonitrile/water. The recovered labeled peptide is further purified by reverse phase HPLC on a Vydac C-18 analytical column (The Separations Group, Hesperia, CA) on a Beckman 334 gradient HPLC system using a gradient of acetonitrile in 0.1% TFA. The purified radioactive peptide is stored in 0.1 % BSA/20% acetonitrile/0.1% TFA at -800C and can be used for up to 4 weeks.
Cells stably, or transiently, transfected with GnRH receptor expression vectors are harvested, resuspended in 5% sucrose and homogenized using a polytron homogenizer (2x 15 sec). Nuclei are removed by centrifugation (3000 x g for 5 min.), and the supernatant centrifuged (20,000 x g for 30 min, 4° C) to collect the membrane fraction. The final membrane preparation is resuspended in binding buffer (10mM Hepes (pH 7.5), 150 mM NaCl, and 0.1% BSA) and stored at -70°C. Binding reactions are performed in a Millipore MultiScreen 96-well filtration plate assembly with polyethylenimine coated GF/C membranes. The reaction is initiated by adding membranes (40 ug protein in 130 ul binding buffer) to 50ul of [^125I]-labeled GnRH peptide (~100,000 cpm), and 20ul of competitor at varying concentrations. The reaction is terminated after 90 minutes by application of vacuum and washing (2X) with phosphate buffered saline. Bound radioactivity is measured using 96-well scintillation counting (Packard Topcount) or by removing the filters from the plate and direct gamma counting. Ki values are calculated from competition binding data using non-linear least squares regression using the Prism software package (GraphPad Software).

Row | SMILES | Ki
1 | CN(CCc1ccccn1)Cc1c(C(C)(C)C)cc2n(Cc3ccccc3F)cc(C(=O)NCCCc3ccccc3)c(=O)n12 [Example 2D] | < 1 µM
2 | CCOC(=O)c1cn(Cc2ccccc2F)c2cc(C(C)(C)C)c(CN(C)CCc3ccccn3)n2c1=O [Example 2B] | < 1 µM
3 | COc1cccc(-c2c(C)n(Cc3ccccc3F)c3nc(C(C)(C)C)c(CNCCc4ccccn4)n3c2=O)c1 [Example 3B] | < 1 µM
4 | COc1cccc(-c2c(C)n(Cc3ccccc3F)c3nc(C(C)(C)C)c(CNCc4ccccn4)n3c2=O)c1 [Example 3D, 3-(N-(2-Pyridylmethyl))aminomethyl-2-(tert-butyl)-6-methyl-7-(2-fluorobenzyl)-5-(3-methoxyphenyl)imidazolo[1,2-a]pyrimid-4-one] | < 1 µM
5 | COc1cccc(-c2c(C)n(Cc3ccccc3F)c3nc(C(C)(C)C)c(CNCCc4ccccc4F)n3c2=O)c1 [Example 3A, 2-(tert-Butyl)-3-[N-(2-fluorophenyl)ethyl]aminomethyl-5-(3-methoxyphenyl)-6-methyl-7-(2-fluorobenzyl)imidazolo[1,2-a]pyrimid-4-one] | < 1 µM
